In patent US20250353891A1 (MEDIMMUNE LIMITED, priority 2022, published 2025):
Starred links: 1 amine or outer side, 2 acyl side, 3 side chain; linkers in the order of their positions; H or OH if unused. Non-standard residues stand in square brackets, D forms with d. Residues, ends and D or L forms follow the SMILES beside them. Groups on a side chain read outwards from the residue. *: point of attachment. Bip = N[C@@H](Cc1ccc(-c2ccccc2)cc1)C(=O)O; C18 diacid = O=C(O)CCCCCCCCCCCCCCCCC(=O)*; γGlu = O=C(O)[C@H](CCC(=O)[*:2])N[*:1]; αMeF = C[C@](N)(Cc1ccccc1)C(=O)O; AEEA = NCCOCCOCC(=O)O; Aib = CC(C)(N)C(=O)O

Key:
[1] = target: human GLP-1 receptor (hGLP-1R) (Homo sapiens, UniProt P43220); assay: cAMP production (HTRF) in CHO cells expressing hGLP-1R; format: cell-based; design: expressed in transfected cells; settings: for EC50: Table 6, peptides modified at position 17, cAMP in CHO hGLP-1R cells, geometric mean, read-out: hGLP-1R EC50; for % Relative Potency Ratio: Table 6, % GLP-1R activity relative to GLP-1 / % GlucR activity relative to glucagon
Chain of human GLP-1 receptor (hGLP-1R) (P43220 24-463): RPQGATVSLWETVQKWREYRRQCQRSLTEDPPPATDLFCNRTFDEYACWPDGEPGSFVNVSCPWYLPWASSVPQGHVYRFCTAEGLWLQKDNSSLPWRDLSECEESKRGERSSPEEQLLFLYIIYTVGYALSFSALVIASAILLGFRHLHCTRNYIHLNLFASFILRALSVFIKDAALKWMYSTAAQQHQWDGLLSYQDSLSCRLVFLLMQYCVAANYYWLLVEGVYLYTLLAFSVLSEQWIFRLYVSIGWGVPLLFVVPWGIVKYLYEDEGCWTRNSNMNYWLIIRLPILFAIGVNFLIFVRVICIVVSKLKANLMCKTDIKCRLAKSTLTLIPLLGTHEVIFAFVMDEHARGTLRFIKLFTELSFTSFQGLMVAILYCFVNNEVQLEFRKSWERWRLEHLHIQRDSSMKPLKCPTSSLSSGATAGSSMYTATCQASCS
How it was run: (§1)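 Potency values represent EC50 from 4-parameter logistic curves of HTRF % Delta F signal. Receptor-expressing CHO cells (hGCGR 2×10^5 cells/mL, hGLP-1R 1×10^5 cells/mL) were exposed for 30 min at room temperature before two-step cAMP detection.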

[2] = target: human glucagon receptor (hGCGR) (Homo sapiens, UniProt P47871); assay: cAMP production (HTRF) in CHO cells expressing hGCGR; format: cell-based; design: expressed in transfected cells; settings: Table 6, peptides modified at position 17; cAMP in CHO hGCGR cells; geometric mean; read-out: hGluc-R EC50
Chain of human glucagon receptor (hGCGR) (P47871 26-477): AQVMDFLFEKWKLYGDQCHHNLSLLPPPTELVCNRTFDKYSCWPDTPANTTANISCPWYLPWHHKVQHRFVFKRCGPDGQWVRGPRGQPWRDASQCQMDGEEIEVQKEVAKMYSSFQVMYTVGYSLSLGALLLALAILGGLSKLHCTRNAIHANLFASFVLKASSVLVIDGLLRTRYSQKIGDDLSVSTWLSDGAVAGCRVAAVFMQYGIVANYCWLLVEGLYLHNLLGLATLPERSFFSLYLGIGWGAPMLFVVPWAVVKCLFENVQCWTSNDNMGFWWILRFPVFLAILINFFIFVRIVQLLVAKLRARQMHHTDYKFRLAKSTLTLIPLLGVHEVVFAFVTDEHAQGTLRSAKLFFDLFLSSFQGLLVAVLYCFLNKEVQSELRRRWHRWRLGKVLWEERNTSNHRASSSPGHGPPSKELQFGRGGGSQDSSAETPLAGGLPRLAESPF
How it was run: as §1

| EC50 [1] [nM] | % Relative Potency Ratio [1] | EC50 [2] [nM] | SMILES |
| --- | --- | --- | --- |
| 0.0115 | 142.3 | 0.827 | CC(C)C[C@H](NC(=O)[C@H](Cc1c[nH]c2ccccc12)NC(=O)[C@H](CCCNC(=N)N)NC(=O)[C@@H](NC(=O)[C@H](Cc1ccccc1)NC(=O)[C@H](CC(=O)O)NC(=O)[C@H](CCC(N)=O)NC(=O)[C@H](C)NC(=O)[C@H](CCCNC(=N)N)NC(=O)[C@H](CCCCNC(=O)COCCOCCNC(=O)COCCOCCNC(=O)CC[C@H](NC(=O)CCCCCCCCCCCCCCCCC(=O)O)C(=O)O)NC(=O)[C@H](CCCCN)NC(=O)[C@H](CC(=O)O)NC(=O)[C@H](CC(C)C)NC(=O)[C@](C)(Cc1ccccc1)NC(=O)[C@H](CCCCN)NC(=O)[C@H](CO)NC(=O)[C@@H](NC(=O)[C@H](CC(=O)O)NC(=O)[C@H](CO)NC(=O)[C@@H](NC(=O)[C@H](Cc1ccccc1)NC(=O)[C@@H](NC(=O)CNC(=O)[C@H](CCC(N)=O)NC(=O)C(C)(C)NC(=O)[C@@H](N)Cc1c[nH]cn1)[C@@H](C)O)[C@@H](C)O)C(C)C)C(C)C)C(=O)N[C@@H](CCCCN)C(=O)N[C@@H](C)C(=O)NC(C)(C)C(=O)NCC(=O)O [Peptide 425] (H-H[Aib]QGTFTSDVSK[αMeF]LDKK([AEEA-AEEA-γGlu-C18 diacid])RAQDFVRWLKA[Aib]G-OH; N-terminus assumed) |
| 0.0073 | 16.6 | 0.0612 | CC(C)C[C@H](NC(=O)[C@H](Cc1c[nH]c2ccccc12)NC(=O)[C@H](CCCNC(=N)N)NC(=O)[C@@H](NC(=O)[C@H](Cc1ccccc1)NC(=O)[C@H](CC(=O)O)NC(=O)[C@H](CCC(N)=O)NC(=O)[C@H](C)NC(=O)[C@H](CCCNC(=N)N)NC(=O)[C@H](CCCCNC(=O)COCCOCCNC(=O)COCCOCCNC(=O)CC[C@H](NC(=O)CCCCCCCCCCCCCCCCC(=O)O)C(=O)O)NC(=O)[C@H](CCCCN)NC(=O)[C@H](CC(=O)O)NC(=O)[C@H](CC(C)C)NC(=O)[C@](C)(Cc1ccccc1)NC(=O)[C@H](CCCCN)NC(=O)[C@H](CO)NC(=O)[C@@H](NC(=O)[C@H](CC(=O)O)NC(=O)[C@H](CO)NC(=O)[C@@H](NC(=O)[C@H](Cc1ccccc1)NC(=O)[C@@H](NC(=O)CNC(=O)[C@H](CCC(N)=O)NC(=O)C(C)(C)NC(=O)[C@@H](N)Cc1c[nH]cn1)[C@@H](C)O)[C@@H](C)O)C(C)C)C(C)C)C(=O)N[C@@H](CC(C)C)C(=O)N[C@@H](CCCNC(=N)N)C(=O)NC(C)(C)C(=O)N[C@@H](CCCCN)C(=O)O [Peptide 426] (H-H[Aib]QGTFTSDVSK[αMeF]LDKK([AEEA-AEEA-γGlu-C18 diacid])RAQDFVRWLLR[Aib]K-OH; N-terminus assumed) |
| 0.0124 | 7.5 | 0.0472 | CC(C)C[C@H](NC(=O)[C@H](Cc1c[nH]c2ccccc12)NC(=O)[C@H](CCC(N)=O)NC(=O)[C@@H](NC(=O)[C@H](Cc1ccccc1)NC(=O)[C@H](CC(=O)O)NC(=O)[C@H](CCCNC(=N)N)NC(=O)[C@H](C)NC(=O)[C@H](CCCNC(=N)N)NC(=O)[C@H](CCCCNC(=O)COCCOCCNC(=O)COCCOCCNC(=O)CC[C@H](NC(=O)CCCCCCCCCCCCCCCCC(=O)O)C(=O)O)NC(=O)[C@@H](NC(=O)[C@H](CC(=O)O)NC(=O)[C@H](CC(C)C)NC(=O)[C@](C)(Cc1ccccc1)NC(=O)[C@H](CCCCN)NC(=O)[C@H](CO)NC(=O)[C@@H](NC(=O)[C@H](CC(=O)O)NC(=O)[C@H](CO)NC(=O)[C@@H](NC(=O)[C@H](Cc1ccccc1)NC(=O)[C@@H](NC(=O)CNC(=O)[C@H](CCC(N)=O)NC(=O)C(C)(C)NC(=O)[C@@H](N)Cc1c[nH]cn1)[C@@H](C)O)[C@@H](C)O)C(C)C)[C@@H](C)O)C(C)C)C(=O)N[C@@H](CC(C)C)C(=O)N[C@@H](CCC(=O)O)C(=O)NC(C)(C)C(=O)NCC(N)=O [Peptide 427] |
| 0.0331 | 0.6 | 0.0105 | CC(C)C[C@H](NC(=O)[C@H](Cc1c[nH]c2ccccc12)NC(=O)[C@H](CCC(N)=O)NC(=O)[C@@H](NC(=O)[C@H](Cc1ccccc1)NC(=O)[C@H](CC(=O)O)NC(=O)[C@H](CCCNC(=N)N)NC(=O)[C@H](C)NC(=O)[C@H](CCCNC(=N)N)NC(=O)[C@H](CCCCNC(=O)COCCOCCNC(=O)COCCOCCNC(=O)CC[C@H](NC(=O)CC[C@H](NC(=O)CCCCCCCCCCCCCCCCC(=O)O)C(=O)O)C(=O)O)NC(=O)[C@@H](NC(=O)[C@H](CC(=O)O)NC(=O)[C@H](CC(C)C)NC(=O)[C@](C)(Cc1ccccc1)NC(=O)[C@H](CCCCN)NC(=O)[C@H](CO)NC(=O)[C@@H](NC(=O)[C@H](CC(=O)O)NC(=O)[C@H](CO)NC(=O)[C@@H](NC(=O)[C@H](Cc1ccccc1)NC(=O)[C@@H](NC(=O)CNC(=O)[C@H](CCC(N)=O)NC(=O)C(C)(C)NC(=O)[C@@H](N)Cc1c[nH]cn1)[C@@H](C)O)[C@@H](C)O)C(C)C)[C@@H](C)O)C(C)C)C(=O)N[C@@H](CC(C)C)C(=O)N[C@@H](CCC(=O)O)C(=O)NC(C)(C)C(=O)NCC(N)=O [Peptide 428] |
| 0.015 | 19.0 | 0.144 | CC(C)C[C@H](NC(=O)[C@H](Cc1c[nH]c2ccccc12)NC(=O)[C@H](CCCNC(=N)N)NC(=O)[C@@H](NC(=O)[C@H](Cc1ccccc1)NC(=O)[C@H](CC(=O)O)NC(=O)[C@H](CCC(N)=O)NC(=O)[C@H](C)NC(=O)[C@H](CCCNC(=N)N)NC(=O)[C@H](CCCCNC(=O)COCCOCCNC(=O)COCCOCCNC(=O)CC[C@H](NC(=O)CCCCCCCCCCCCCCCCC(=O)O)C(=O)O)NC(=O)[C@H](CO)NC(=O)[C@H](CC(=O)O)NC(=O)[C@H](CC(C)C)NC(=O)[C@](C)(Cc1ccccc1)NC(=O)[C@H](CCCCN)NC(=O)[C@H](CO)NC(=O)[C@@H](NC(=O)[C@H](CC(=O)O)NC(=O)[C@H](CO)NC(=O)[C@@H](NC(=O)[C@H](Cc1ccccc1)NC(=O)[C@@H](NC(=O)CNC(=O)[C@H](CCC(N)=O)NC(=O)C(C)(C)NC(=O)[C@@H](N)Cc1c[nH]cn1)[C@@H](C)O)[C@@H](C)O)C(C)C)C(C)C)C(=O)N[C@@H](CCC(=O)O)C(=O)N[C@@H](C)C(=O)NC(C)(C)C(=O)NCC(N)=O [Peptide 429] (H-H[Aib]QGTFTSDVSK[αMeF]LDSK([AEEA-AEEA-γGlu-C18 diacid])RAQDFVRWLEA[Aib]G-NH2; N-terminus assumed) |
| 0.0244 | 13.0 | 0.16 | CC(C)C[C@H](NC(=O)[C@H](Cc1c[nH]c2ccccc12)NC(=O)[C@H](CCCNC(=N)N)NC(=O)[C@@H](NC(=O)[C@H](Cc1ccccc1)NC(=O)[C@H](CC(=O)O)NC(=O)[C@H](CCC(N)=O)NC(=O)[C@H](C)NC(=O)[C@H](CCCNC(=N)N)NC(=O)[C@H](CCCCNC(=O)COCCOCCNC(=O)COCCOCCNC(=O)CC[C@H](NC(=O)CC[C@H](NC(=O)CCCCCCCCCCCCCCCCC(=O)O)C(=O)O)C(=O)O)NC(=O)[C@H](CO)NC(=O)[C@H](CC(=O)O)NC(=O)[C@H](CC(C)C)NC(=O)[C@](C)(Cc1ccccc1)NC(=O)[C@H](CCCCN)NC(=O)[C@H](CO)NC(=O)[C@@H](NC(=O)[C@H](CC(=O)O)NC(=O)[C@H](CO)NC(=O)[C@@H](NC(=O)[C@H](Cc1ccccc1)NC(=O)[C@@H](NC(=O)CNC(=O)[C@H](CCC(N)=O)NC(=O)C(C)(C)NC(=O)[C@@H](N)Cc1c[nH]cn1)[C@@H](C)O)[C@@H](C)O)C(C)C)C(C)C)C(=O)N[C@@H](CCC(=O)O)C(=O)N[C@@H](C)C(=O)NC(C)(C)C(=O)NCC(N)=O [Peptide 430] (H-H[Aib]QGTFTSDVSK[αMeF]LDSK([AEEA-AEEA-γGlu-γGlu-C18 diacid])RAQDFVRWLEA[Aib]G-NH2; N-terminus assumed) |
| 0.0446 | 8.6 | 0.194 | CC(C)C[C@H](NC(=O)[C@H](Cc1c[nH]c2ccccc12)NC(=O)[C@H](C)NC(=O)[C@@H](NC(=O)[C@H](Cc1ccccc1)NC(=O)[C@H](CC(=O)O)NC(=O)[C@H](CCC(N)=O)NC(=O)[C@H](C)NC(=O)[C@H](CCCNC(=N)N)NC(=O)[C@H](CCCCNC(=O)COCCOCCNC(=O)COCCOCCNC(=O)CC[C@H](NC(=O)CC[C@H](NC(=O)CCCCCCCCCCCCCCCCC(=O)O)C(=O)O)C(=O)O)NC(=O)[C@@H](NC(=O)[C@H](CC(=O)O)NC(=O)[C@H](CC(C)C)NC(=O)[C@](C)(Cc1ccccc1)NC(=O)[C@H](CCCCN)NC(=O)[C@H](CO)NC(=O)[C@@H](NC(=O)[C@H](CC(=O)O)NC(=O)[C@H](CO)NC(=O)[C@@H](NC(=O)[C@H](Cc1ccccc1)NC(=O)[C@@H](NC(=O)CNC(=O)[C@H](CCC(N)=O)NC(=O)C(C)(C)NC(=O)[C@@H](N)Cc1c[nH]cn1)[C@@H](C)O)[C@@H](C)O)C(C)C)[C@@H](C)O)C(C)C)C(=O)N[C@@H](CCC(=O)O)C(=O)N[C@@H](C)C(=O)NC(C)(C)C(=O)NCC(N)=O [Peptide 431] (H-H[Aib]QGTFTSDVSK[αMeF]LDTK([AEEA-AEEA-γGlu-γGlu-C18 diacid])RAQDFVAWLEA[Aib]G-NH2; N-terminus assumed) |
| 1.38 | 1.7 | 1.16 | CC(C)C[C@H](NC(=O)[C@H](Cc1ccc(-c2ccccc2)cc1)NC(=O)[C@H](CCCNC(=N)N)NC(=O)[C@@H](NC(=O)[C@H](Cc1ccccc1)NC(=O)[C@H](CC(=O)O)NC(=O)[C@H](CCC(N)=O)NC(=O)[C@H](C)NC(=O)[C@H](CCCNC(=N)N)NC(=O)[C@H](CCCCNC(=O)COCCOCCNC(=O)COCCOCCNC(=O)CC[C@H](NC(=O)CCCCCCCCCCCCCCCCC(=O)O)C(=O)O)NC(=O)[C@H](CO)NC(=O)[C@H](CC(=O)O)NC(=O)[C@H](CC(C)C)NC(=O)[C@](C)(Cc1ccccc1)NC(=O)[C@H](CCCCN)NC(=O)[C@H](CO)NC(=O)[C@@H](NC(=O)[C@H](CC(=O)O)NC(=O)[C@H](CO)NC(=O)[C@@H](NC(=O)[C@H](Cc1ccccc1)NC(=O)[C@@H](NC(=O)CNC(=O)[C@H](CCC(N)=O)NC(=O)C(C)(C)NC(=O)[C@@H](N)Cc1c[nH]cn1)[C@@H](C)O)[C@@H](C)O)C(C)C)C(C)C)C(=O)N[C@@H](CC(C)C)C(=O)NC(C)(C)C(=O)N[C@@H](CCC(=O)O)C(=O)O [Peptide 432] (H-H[Aib]QGTFTSDVSK[αMeF]LDSK([AEEA-AEEA-γGlu-C18 diacid])RAQDFVR[Bip]LL[Aib]E-OH) |
